Experimental findings from patent US8034940B2, “Modulators of glucocorticoid receptor, AP-1, and/or NF-κB activity and use thereof” (Bristol-Myers Squibb Company, priority 2006, dated 2011) are described below.

Structures are written as SMILES.

The test system of the experiment is AP-1 induced transcriptional activity. In words: Cellular Transrepressional Assay (AP-1 luciferase reporter, PMA-activated A549 cells). It is filed as cell-based. The note with it: for AP-1 Max % inh (Cellular Transrepression Assay) / Emax: maximum inhibition; for Emax: A549, 7 h, read-out: AP-1 Max % inh (Cellular Transrepression Assay). The method, then: Cellular Transrepressional Assay
To measure the ability of test molecules to inhibit AP-1 induced transcriptional activity we utilized an A549 cell which was stably transfected with a plasmid containing 7× AP-1 DNA binding sites (pAP-1-Luc plasmid, Stratagene Co. La Jolla, Calif.) followed by the gene for luciferase. Cells were activated with 10 ng/ml of […] (PMA) plus or minus test molecules for 7 hours. After 7 hours a luciferase reagent was added to measure luciferase enzymatic activity in the cell. After a 10 minute incubation of luciferase reagent with cells, luminescence was measured in a TopCount luminescence counter. Repression of AP-1 activity was calculated as the percentage decrease in the signal induced by PMA alone. Test molecules were analyzed in the concentration range from 0.1 nM to 40 μM. EC50s were determined by using standard curve fitting methods such as Excel fit (Microsoft Co.).

[1] abbreviates: Homo sapiens, Cellular Transrepression Assay.
Setting [2] is: Homo sapiens, A549, Cellular Transrepression Assay.

For the compound `CCCN(C)C(=O)c1ccc(-c2ccc3c(n2)Oc2ccccc2C3C(C)(C)C(=O)Nc2nncs2)cc1` (centres unmarked) [Example 254], under “Cellular Transrepression Assay”, the response was half-maximal at 23.6 nM (EC50) and the “AP-1 Max % inh (Cellular Transrepression Assay)” value (“AP-1 Max % inh” for short) is on record as 41.80%.

With `Cc1ccc(COC(=O)Nc2ccc3c(c2)Oc2ccccc2C3C(C)(C)C(=O)Nc2nncs2)cc1` (centres unmarked) [Example 121], under setting [1], the Emax was 44.8%. A half-maximal effect under setting [2] (EC50) was put at 59.5 nM.

Consider `CC(C)(C(=O)Nc1nncs1)[C@H]1c2ccccc2Oc2cc(OC(=O)NCc3ccco3)ccc21` [Example 372], for which the Emax under setting [1] was 52.4%. For the same compound, the response under setting [2] was half-maximal at 28.3 nM (EC50).

Take `CC(C)(C(=O)Nc1nncs1)[C@H]1c2ccccc2Oc2nc(-c3ccc(C(=O)N4CCCCC4)cc3)ccc21` [Example 247]: the Emax under setting [1] came out at 52.4%. Further, a half-maximal response under setting [2] (EC50) required 4.74 nM.

`COc1ccc2c(c1)Oc1ccccc1[C@H]2C(C)(C)C(=O)Nc1nc(Cc2ccc(-c3cccnc3)cc2)cs1` [Example 55]: under setting [1], the Emax stood at 75.5%. In addition, under setting [2], the midpoint of the response, the EC50, lay at 21.5 nM.

As for `CN(C)c1nnc(NC(=O)C(C)(C)[C@H]2c3ccccc3Oc3nc(-c4ccc(C(=O)N5CCCC5)c(F)c4)ccc32)s1` [Example 429], the Emax under setting [1] came out at 41.8%. Besides, a half-maximal effect under setting [2] (EC50) was put at 67.3 nM.

Consider `COc1ccc(CCNC(=O)Oc2ccc3c(c2)Oc2ccccc2C3C(C)(C)C(=O)Nc2nncs2)cc1` (centres unmarked) [Example 384], for which, under “Cellular Transrepression Assay”, it took 61.9 nM to reach a half-maximal effect (EC50) and the “AP-1 Max % inh” value was 42.30%.

In the case of `Cc1nnc(NC(=O)C(C)(C)[C@H]2c3ccccc3Oc3nc(-c4ccc(OC(C)C)cc4)ccc32)s1` [Example 461], under setting [1], the Emax came to 50.8%. For the same compound, the EC50 under setting [2] was found to be 53.4 nM.

With `CCNC(=O)Oc1ccc2c(c1)Oc1ccccc1[C@@H]2C(C)(C)C(=O)Nc1nncs1` [Example 371], the Emax under setting [1] was 48.7%. Under setting [2], the half-maximal effective concentration (EC50) is 22.3 nM.

As to `CC(C)(O)c1ccc(-c2ccc3c(n2)Oc2ccccc2[C@@H]3C(C)(C)C(=O)Nc2nncs2)cc1` [Example 404], under setting [1], the Emax worked out at 70.6%. The compound further came in with an EC50 under setting [2] of 22.5 nM.

As to `CC(C)(C(=O)Nc1nncs1)[C@H]1c2ccccc2Oc2nc(-c3ccc(C(=O)N4CCOCC4)c(F)c3)ccc21` [Example 327], where the note is “Cellular Transrepression Assay”, it took 8.93 nM to reach a half-maximal effect (EC50) and the “AP-1 Max % inh” value was 59.45%.

`COC1CCN(C(=O)c2ccc(-c3ccc4c(n3)Oc3ccccc3[C@@H]4C(C)(C)C(=O)Nc3nncs3)cc2)CC1` [Example 309]: for the setting “Cellular Transrepression Assay”, the 50% effective concentration (EC50) turned out to be 41.5 nM and the “AP-1 Max % inh” value amounted to 34.95%.

As for `COc1ccc(Cc2csc(NC(=O)C(C)(C)C3c4ccccc4Oc4cc(OC)ccc43)n2)cc1` (centres unmarked) [Example 53], for the setting “Cellular Transrepression Assay”, the concentration for a half-maximal effect (EC50) worked out at 78.5 nM and the “AP-1 Max % inh” value is given as 72.00%.

In the case of `CC(C)(C(=O)Nc1nc(C(=O)c2ccccc2)cs1)C1c2ccccc2Oc2ccccc21` [Example 44], the Emax under setting [1] stood at 69.3%.

Consider `CC(C)(C(=O)Nc1nc(-c2ccc(F)c3ccccc23)cs1)C1c2ccccc2S(=O)(=O)c2ccccc21` [Example 11], for which the Emax under setting [1] was determined as 68.5%. The compound further gave an EC50 under setting [2] of 882 nM.

Regarding `CN(C)C(=O)c1ccc(-c2ccc3c(n2)Oc2ccccc2[C@@H]3C(C)(C)C(=O)Nc2nnc(CF)s2)cc1` [Example 432], the Emax under setting [1] is 40.2%. The same compound had an EC50 under setting [2] of 52.7 nM.

Turning to `CC(C)(C(=O)Nc1nncs1)C1c2ccccc2Oc2cc(-c3nn[nH]n3)ccc21` (centres unmarked) [Example 126], under setting [1], the Emax came to 30.8%. Also, the concentration giving a half-maximal response (EC50) under setting [2] is 49.7 nM.

In the case of `COc1ccc(Cc2csc(NC(=O)C(C)(C)C3c4ccccc4Oc4ccccc43)n2)cc1` [Example 33], the Emax under setting [1] is 55.2%. Under setting [2], this compound returned an EC50 of 31.8 nM.

In the case of `CN(C)C(=O)c1ccc(-c2ccc3c(n2)Oc2ccccc2C3C(C)(C)C(=O)Nc2ncns2)cc1` (centres unmarked) [Example 441], the Emax under setting [1] is 52.4%. Under setting [2], this compound yielded an EC50 of 63.9 nM.

In the case of `CC(C)(C(=O)Nc1nnc(C(=O)NC2CC2)s1)[C@H]1c2ccccc2Oc2nc(-c3ccc(C(=O)N4CCCC4)c(F)c3)ccc21` [Example 422], under setting [1], the Emax was determined as 41.6%. Under setting [2], this compound displayed a concentration for a half-maximal effect (EC50) of 84.1 nM.

For `COc1ccc2c(n1)Oc1ccccc1C2C(C)(C)C(=O)Nc1nc(-c2ccc(F)c3ccccc23)cs1` (centres unmarked) [Example 78], the Emax under setting [1] is 65.1%. In addition, under setting [2], the EC50 was 164 nM.

Turning to `COC[C@H]1CCCN1C(=O)c1ccc(-c2ccc3c(n2)Oc2ccccc2[C@@H]3C(C)(C)C(=O)Nc2nncs2)cc1F` [Example 325], under setting [1], the Emax stood at 56.1%. The compound further displayed an EC50 under setting [2] of 90.2 nM.

Consider `CCN(C)C(=O)c1ccc(-c2ccc3c(n2)Oc2ccccc2[C@@H]3C(C)(C)C(=O)Nc2nnc(C)s2)cc1` [Example 464], for which the Emax under setting [1] is 54%. For the same compound, a half-maximal effect under setting [2] (EC50) was put at 18.2 nM.

In the case of `Cc1ccc(-c2csc(NC(=O)C(C)(C)C3c4ccccc4Sc4ccccc43)n2)c2ccccc12` [Example 7], the Emax under setting [1] came to 64.9%. The response under setting [2] was half-maximal at 303 nM (EC50).

Consider `CC(=O)c1ccc(-c2ccc3c(n2)Oc2ccccc2C3C(C)(C)C(=O)Nc2nncs2)cc1` (centres unmarked) [Example 201], for which, under “Cellular Transrepression Assay”, it took 36.3 nM to reach a half-maximal effect (EC50) and the “AP-1 Max % inh” value came to 65.46%.

Regarding `CN(C)C(=O)c1ccc(-c2ccc3c(n2)Oc2ccccc2[C@@H]3C(C)(C)C(=O)Nc2ncns2)cc1` [Example 471], the Emax under setting [1] came out at 52.4%. The EC50 under setting [2] stood at 63.9 nM.

With `CC(C)C(O)c1ccc(-c2ccc3c(n2)Oc2ccccc2[C@@H]3C(C)(C)C(=O)Nc2nncs2)cc1` (some centres unmarked) [Example 240], the Emax under setting [1] amounted to 61.7%. For the same compound, the EC50 under setting [2] was found to be 51.9 nM.

Take `CC(C)(C(=O)Nc1nccs1)C1c2ccccc2-c2ccccc21` [Example 18]: the Emax under setting [1] is 37.6%. The compound further had an EC50 under setting [2] of 542 nM.

Consider `CC(C)(C(=O)Nc1nncs1)[C@H]1c2ccccc2Oc2nc(C3=CCN(C(=O)N4CCCC4)CC3)ccc21` [Example 408], for which, under setting [1], the Emax is 24.1%. For the same compound, the concentration for a half-maximal effect (EC50) under setting [2] came out at 364 nM.

For `CC(C)(C(=O)Nc1nccs1)[C@H]1c2ccccc2Oc2cc(O)ccc21` [Example 89], the Emax under setting [1] was found to be 68.3%. Also, under setting [2], the response was half-maximal at 18.1 nM (EC50).

`CC(C)(C(=O)Nc1nncs1)C1c2ccccc2Oc2cc(-c3ccc(C(=O)N4CCOCC4)cc3)ncc21` (centres unmarked) [Example 492]: the Emax under setting [1] was 28.4%. Under setting [2], this compound displayed an EC50 of 182 nM.

Regarding `CC(C)(C(=O)Nc1nncs1)[C@H]1c2ccccc2Oc2nc(-c3ccc(C(=O)N4CCC(F)(F)CC4)c(F)c3)ccc21` [Example 334], under setting [1], the Emax turned out to be 36.2%. Also, a half-maximal effect under setting [2] (EC50) was put at 3.36 nM.

For `COc1ccc2c(c1)Oc1ccccc1C2C(C)(C)C(=O)Nc1nc(-c2ccc(F)c3ccccc23)cs1` (centres unmarked) [Example 45], the Emax under setting [1] is 71.5%. Besides, the response under setting [2] was half-maximal at 102 nM (EC50).

Turning to `CC(C)Oc1ccc(-c2ccc3c(n2)Oc2ccccc2[C@@H]3C(C)(C)C(=O)Nc2ncns2)cc1` [Example 458], the Emax under setting [1] turned out to be 35.2%. Besides, the half-maximal effective concentration (EC50) under setting [2] was found to be 53.2 nM.

For `COc1ccc(CNc2ccc3c(n2)Oc2ccccc2C3C(C)(C)C(=O)Nc2nncs2)cc1` (centres unmarked) [Example 128], the Emax under setting [1] was determined as 66.3%. Under setting [2], this compound gave an EC50 of 92 nM.

Regarding `CCN(C)C(=O)c1ccc(-c2ccc3c(n2)Oc2ccccc2[C@@H]3C(C)(C)C(=O)Nc2ncns2)cc1F` [Example 454], under setting [1], the Emax came to 49.5%. For the same compound, the EC50 under setting [2] stood at 25.3 nM.

With `CC(C)(C(=O)Nc1nncs1)C1c2ccccc2Oc2nc(-c3ccc(C(F)(F)F)cc3)ccc21` (centres unmarked) [Example 182], for the setting “Cellular Transrepression Assay”, the EC50 is 109 nM and the “AP-1 Max % inh” value was determined as 33.12%.

Consider `Cc1nnc(NC(=O)C(C)(C)[C@H]2c3ccccc3Oc3nc(-c4ccc(C(=O)N5CCC(F)(F)C5)cc4)ccc32)s1` [Example 466], for which, under setting [1], the Emax turned out to be 56.1%. The compound further showed an EC50 under setting [2] of 28.2 nM.

For `CC(C)(C(=O)Nc1nncs1)[C@H]1c2ccccc2Oc2nc(-c3ccc(C(=O)N4CC(F)(F)C(F)(F)C4)c(F)c3)ccc21` [Example 337], under setting [1], the Emax turned out to be 51.5%. Moreover, under setting [2], the EC50 stood at 103 nM.

In the case of `CC(C)(C(=O)Nc1nc(Cc2ccc(-c3cn[nH]c3)cc2)cs1)C1c2ccccc2Oc2ccccc21` [Example 41], under setting [1], the Emax was 73.8%. Also, the EC50 under setting [2] stood at 5.82 nM.

As for `CC(C)Oc1ccc(-c2ccc3c(n2)Oc2c(F)cccc2C3C(C)(C)C(=O)Nc2nncs2)cc1F` (racemic) [Example 163], for the setting “Cellular Transrepression Assay”, it took 16.8 nM to reach a half-maximal effect (EC50) and the “AP-1 Max % inh” value came out at 49.60%.

On to `CC(C)(C(=O)Nc1nncs1)C1c2ccccc2Oc2nc(N3CCOCC3)ccc21` (centres unmarked) [Example 129], for which the Emax under setting [1] was 39.5%. The compound also came in with an EC50 under setting [2] of 307 nM.

On to `CC(C)(C)c1ccc(-c2ccc3c(n2)Oc2ccccc2C3C(C)(C)C(=O)Nc2nncs2)cc1` (centres unmarked) [Example 207], for which, where the note is “Cellular Transrepression Assay”, it took 32.6 nM to reach a half-maximal effect (EC50) and the “AP-1 Max % inh” value was 37.96%.

For `C[S+]([O-])c1cnc(NC(=O)C(C)(C)[C@H]2c3ccccc3Oc3nc(-c4ccc(C(=O)N5CCCC5)c(F)c4)ccc32)s1` (some centres unmarked) [Example 427], under setting [1], the Emax was found to be 25.1%. Also, under setting [2], the EC50 came to 188 nM.

For the compound `COc1cccc2c1Oc1ccccc1C2C(C)(C)C(=O)Nc1nc(Cc2ccc(-c3ccncc3)cc2)cs1` (centres unmarked) [Example 83], the Emax under setting [1] is 69.6%. The compound further came in with an EC50 under setting [2] of 15 nM.

On to `CCNC(=O)c1nnc(NC(=O)C(C)(C)[C@H]2c3ccccc3Oc3nc(-c4ccc(C(=O)N5CCCC5)c(F)c4)ccc32)s1` [Example 421], for which the Emax under setting [1] turned out to be 42.6%. Moreover, under setting [2], the response was half-maximal at 49.8 nM (EC50).

In the case of `COc1ccc2c(c1)Oc1ccccc1C2C(C)(C)C(=O)Nc1nc(Cc2ccc(-c3ccncc3)cc2)cs1` (centres unmarked) [Example 51], the Emax under setting [1] was determined as 77.9%. This compound yielded a concentration giving a half-maximal response (EC50) under setting [2] of 6.87 nM.

As for `CC(C)(C(=O)Nc1ncc([N+](=O)[O-])s1)[C@H]1c2ccccc2Oc2nc(-c3ccc(C(=O)N4CCCC4)c(F)c3)ccc21` [Example 411], the Emax under setting [1] was found to be 58.5%. Further, under setting [2], the half-maximal effective concentration (EC50) came to 161 nM.
